Common to all, as to format: cell-based
Assay [1] deals with T-Rex 293 cells lacking increased expression of estrogen receptor alpha protein. Kind of assay: Cellular growth inhibition assay, T-Rex 293 cells, (−) doxycycline. The conditions noted are these: T-REx-293, 72 h, Table 7-A; T-Rex 293 cells without doxycycline (lacking increased ERα expression); 72 hours; CellTiter-Glo; read-out: (−) Dox GI50. Put shortly: (§1)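 Viability read-out was CellTiter-Glo 2.0 luminescence after 72 h compound exposure, normalized to zero luminescence and fitted by four-parameter regression to give GI50. Cells were an ERα-inducible T-Rex 293 clone cultured with or without 3 ng/mL doxycycline in charcoal-stripped, phenol red-free medium.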
In general terms: ATP-based viability assays read luminescence as a measure of living cells.

Assay [2] has as its system MCF7 cells (ATCC #HTB-22). Kind of assay: Cellular growth inhibition assay, MCF7 cells purchased from ATCC. The conditions noted are these: Homo sapiens, MCF7, 144 h, Table 8-A; MCF7 cells purchased from ATCC; six days; CellTiter-Glo; read-out: GI50. Put shortly:
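MCF7 cells in RPMI 1640 with 10% FBS and 0.2 U/ml insulin, seeded at 1,500 cells/well (ATCC) or 225 cells/well (ECACC). Compounds added 24 h later, then 6 days at 37° C. Viability by CellTiter-Glo 2.0 luminescence. GI50 from four-parameter fit.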

The subject of assay [3] is T-Rex 293 cells having increased expression of estrogen receptor alpha protein. Kind of assay: Cellular growth inhibition assay, T-Rex 293 cells, (+) doxycycline. The conditions noted are these: T-REx-293, 72 h, Table 7-A; T-Rex 293 cells with doxycycline (increased ERα expression); 72 hours; CellTiter-Glo; read-out: (+) Dox GI50. Put shortly: as §1

Drawing on patent US12558428B2, “Heterobifunctional compounds and their use in treating disease” (Halda Therapeutics OpCo, Inc., priority 2024, dated 2026), this text covers GI50 for 30 molecules.

The structures appear in SMILES notation. Some results are limits rather than exact numbers.

What is called GI50 is the concentration at which growth is held to half of that of the control. On to `Cc1sc2c(c1C)C(c1ccc(OCC3CCN(CCOc4ccc([C@@H]5c6ccc(O)cc6CC[C@@H]5c5ccccc5)cc4)CC3)cc1)=N[C@@H](Cc1ncco1)c1nnc(C)n1-2` [III-111], for which the GI50 is 50 to 500 nM in assay [1], 50 to 500 nM in assay [2] and less than 50 nM in assay [3].
In the case of `Cc1sc2c(c1C)C(c1ccc(OCC3CCN(CCOc4ccc([C@H]5c6ccc(O)cc6CC[C@H]5c5ccccc5)cc4)CC3)cc1)=N[C@@H](Cc1ncco1)c1nnc(C)n1-2` [III-112], the GI50 in assay [1], in assay [2] and in assay [3] was 50 to 500 nM throughout.
`Cc1sc2c(c1C)C(c1ccc(N3CC(N4CCN(CCOc5ccc([C@@H]6c7ccc(O)cc7CC[C@@H]6c6ccccc6)cc5)CC4)C3)cc1)=N[C@@H](Cc1ncco1)c1nnc(C)n1-2` [III-113]: the GI50 in assay [1] is 50 to 500 nM; in assay [2] it was less than 50 nM; in assay [3] it was less than 50 nM.
For the molecule `Cc1sc2c(c1C)C(c1ccc(N3CC(N4CCN(CCOc5ccc([C@H]6c7ccc(O)cc7CC[C@H]6c6ccccc6)cc5)CC4)C3)cc1)=N[C@@H](Cc1ncco1)c1nnc(C)n1-2` [III-114], the GI50 in assay [1] is 50 to 500 nM; in assay [2] it was 50 to 500 nM; in assay [3], less than 50 nM.
For `Cc1sc2c(c1C)C(c1ccc(CN3CCC4(CC3)CCN(c3ccc([C@@H]5c6ccc(O)cc6CC[C@@H]5c5ccccc5)cc3)CC4)cc1)=N[C@@H](C)c1nnc(C)n1-2` [III-115], the GI50 in assay [1] is 500 to 2500 nM; in assay [2], 50 to 500 nM; in assay [3], 50 to 500 nM.
Take `Cc1sc2c(c1C)C(c1ccc(N3CCC4(CC3)CCN(c3ccc([C@@H]5c6ccc(O)cc6CC[C@@H]5c5ccccc5)cc3)CC4)cc1)=N[C@@H](C)c1nnc(C)n1-2` [III-116]: the GI50 was more than 2500 nM in assay [1], 500 to 2500 nM in assay [2] and more than 2500 nM in assay [3].
On to `Cc1sc2c(c1C)C(c1ccc(N3CCC4(CC3)CCN(c3ccc([C@@H]5c6ccc(O)cc6CC[C@@H]5c5ccccc5)cc3)C4)cc1)=N[C@@H](C)c1nnc(C)n1-2` [III-117], for which the GI50 in assay [1] was in the range of 500 to 2500 nM; in assay [2] it was 50 to 500 nM; in assay [3], 500 to 2500 nM.
With `Cc1sc2c(c1C)C(c1ccc(N3CCC(O)(CN4CCN(c5ccc([C@@H]6c7ccc(O)cc7CC[C@@H]6c6ccccc6)cc5)CC4)CC3)cc1)=N[C@@H](C)c1nnc(C)n1-2` [III-118], the GI50 in assay [1] is 500 to 2500 nM; in assay [2], 50 to 500 nM; in assay [3], less than 50 nM.
With `Cc1sc2c(c1C)C(c1ccc(N3CCC(C(=O)N4CCN(c5ccc([C@@H]6c7ccc(O)cc7CC[C@@H]6c6ccccc6)cc5)CC4)CC3)cc1)=N[C@@H](C)c1nnc(C)n1-2` [III-119], the GI50 in assay [1] is 500 to 2500 nM; in assay [2], 50 to 500 nM; in assay [3], 50 to 500 nM.
For `Cc1sc2c(c1C)C(c1ccc(N3CCC4(CCN(c5ccc([C@@H]6c7ccc(O)cc7CC[C@@H]6c6ccccc6)cc5)CC4)C3)cc1)=N[C@@H](C)c1nnc(C)n1-2` [III-120], the GI50 was 500 to 2500 nM in assay [1], 50 to 500 nM in assay [2] and more than 2500 nM in assay [3].
With `COC1(CN2CCN(c3ccc([C@@H]4c5ccc(O)cc5CC[C@@H]4c4ccccc4)cc3)CC2)CCN(c2ccc(C3=N[C@@H](C)c4nnc(C)n4-c4sc(C)c(C)c43)cc2)CC1` [III-121], the GI50 in assay [1] is more than 2500 nM; in assay [2], 500 to 2500 nM; in assay [3], 500 to 2500 nM.
Turning to `Cc1sc2c(c1C)C(c1ccc(N3CCN(CC4CCN(c5ncc([C@H]6c7ccc(O)cc7CC[C@H]6c6ccccc6)cn5)CC4)CC3)cc1)=N[C@@H](C)c1nnc(C)n1-2` [III-122], the figures for the GI50 in assay [1], in assay [2] and in assay [3] were more than 2500 nM, 500 to 2500 nM and 500 to 2500 nM, respectively.
As to `Cc1sc2c(c1C)C(c1ccc(N3CCN(CC4CCN(c5ncc([C@@H]6c7ccc(O)cc7CC[C@@H]6c6ccccc6)cn5)CC4)CC3)cc1)=N[C@@H](C)c1nnc(C)n1-2` [III-123], the GI50 in assay [1] was 500 to 2500 nM; in assay [2], 50 to 500 nM; in assay [3], less than 50 nM.
In the case of `Cc1sc2c(c1C)C(c1ccc(N3CC(N4CCN(Cc5ccc([C@@H]6c7ccc(O)cc7CC[C@@H]6c6ccccc6)cc5)CC4)C3)cc1)=N[C@@H](Cc1ncco1)c1nnc(C)n1-2` [III-124], the GI50 in assay [1] lay in the range of 500 to 2500 nM; in assay [2], 50 to 500 nM; in assay [3] it was 50 to 500 nM.
Turning to `Cc1sc2c(c1C)C(c1ccc(N3CCC(CN4CCN(c5ccc([C@H]6c7ccc(O)cc7CC[C@H]6c6ccccc6)cn5)CC4)CC3)cc1)=N[C@@H](Cc1ncco1)c1nnc(C)n1-2` [III-125], the GI50 is 50 to 500 nM in assay [1], 50 to 500 nM in assay [2] and less than 50 nM in assay [3].
With `Cc1sc2c(c1C)C(c1ccc(N3CCC(CN4CCN(c5ccc([C@@H]6c7ccc(O)cc7CC[C@@H]6c6ccccc6)cn5)CC4)CC3)cc1)=N[C@@H](Cc1ncco1)c1nnc(C)n1-2` [III-126], the GI50 in assay [1] was 50 to 500 nM; in assay [2] it was 50 to 500 nM; in assay [3], less than 50 nM.
For the molecule `Cc1sc2c(c1C)C(c1ccc(N3CCN(CC4CCN(c5ncc([C@H]6c7ccc(O)cc7CC[C@H]6c6ccccc6)cn5)CC4)CC3)cc1)=N[C@@H](Cc1ncco1)c1nnc(C)n1-2` [III-127], the GI50 in assay [1] fell in the range of 500 to 2500 nM; in assay [2] it was 50 to 500 nM; in assay [3] it was 50 to 500 nM.
In the case of `Cc1sc2c(c1C)C(c1ccc(N3CCN(CC4CCN(c5ncc([C@@H]6c7ccc(O)cc7CC[C@@H]6c6ccccc6)cn5)CC4)CC3)cc1)=N[C@@H](Cc1ncco1)c1nnc(C)n1-2` [III-128], the GI50 in assay [1] was 50 to 500 nM; in assay [2], 50 to 500 nM; in assay [3] it was less than 50 nM.
For `Cc1sc2c(c1C)C(c1ccc(N3CCC4(CCN(Cc5ccc([C@@H]6c7ccc(O)cc7CC[C@@H]6c6ccccc6)cc5)CC4)CC3)cc1)=N[C@@H](C)c1nnc(C)n1-2` [III-129], the GI50 lay within 500 to 2500 nM in assay [1], 50 to 500 nM in assay [2] and 50 to 500 nM in assay [3].
Consider `COC1(CN2CCC(c3ccc([C@@H]4c5ccc(O)cc5CC[C@@H]4c4ccccc4)cc3)CC2)CCN(c2ccc(C3=N[C@@H](C)c4nnc(C)n4-c4sc(C)c(C)c43)cc2)CC1` [III-130], for which the GI50 in assay [1] fell in the range of 500 to 2500 nM; in assay [2] it was 50 to 500 nM; in assay [3] it was 50 to 500 nM.
Turning to `Cc1sc2c(c1C)C(c1ccc(N3CC(CC4CCN(CC5CN(c6ccc([C@@H]7c8ccc(O)cc8CC[C@@H]7c7ccccc7)cc6)C5)CC4)C3)cc1)=N[C@@H](C)c1nnc(C)n1-2` [III-131], the GI50 in assay [1] is 500 to 2500 nM; in assay [2], 50 to 500 nM; in assay [3], less than 50 nM.
Consider `Cc1sc2c(c1C)C(c1ccc(N3CCC(CN4CCC(c5ccc([C@@H]6c7ccc(O)cc7CC[C@@H]6c6ccccc6)cc5)CC4)CC3)cc1)=N[C@@H](C)c1nnc(C)n1-2` [III-132], for which the values for the GI50 in assay [1], in assay [2] and in assay [3] were 500 to 2500 nM, 50 to 500 nM and 50 to 500 nM, respectively.
As for `Cc1sc2c(c1C)C(c1ccc(N3CC(CN4CCC(CC5CN(c6ccc([C@@H]7c8ccc(O)cc8CC[C@@H]7c7ccccc7)cc6)C5)CC4)C3)cc1)=N[C@@H](C)c1nnc(C)n1-2` [III-133], the results for the GI50 in assay [1], in assay [2] and in assay [3] were 50 to 500 nM, 50 to 500 nM and less than 50 nM, respectively.
Regarding `Cc1sc2c(c1C)C(c1ccc(N3CC(C(=O)N4CCC(CC5CN(c6ccc([C@@H]7c8ccc(O)cc8CC[C@@H]7c7ccccc7)cc6)C5)CC4)C3)cc1)=N[C@@H](C)c1nnc(C)n1-2` [III-134], the GI50 was 50 to 500 nM in assay [1], less than 50 nM in assay [2] and less than 50 nM in assay [3].
In the case of `Cc1sc2c(c1C)C(c1ccc(N3CC(CC4CCN(C(=O)C5CN(c6ccc([C@@H]7c8ccc(O)cc8CC[C@@H]7c7ccccc7)cc6)C5)CC4)C3)cc1)=N[C@@H](C)c1nnc(C)n1-2` [III-135], the values for the GI50 in assay [1], in assay [2] and in assay [3] were 500 to 2500 nM, less than 50 nM and less than 50 nM, respectively.
Consider `Cc1sc2c(c1C)C(c1ccc(N3CC(CN4CCN(CC5CN(c6ccc([C@H]7c8ccc(O)cc8CC[C@H]7c7ccccc7)cc6)C5)CC4)C3)cc1)=N[C@H](C)c1nnc(C)n1-2` [III-136], for which the GI50 in assay [1], in assay [2] and in assay [3] was more than 2500 nM each time.
For `Cc1sc2c(c1C)C(c1ccc(CC(=O)N3CCC4(CCN(c5ccc([C@@H]6c7ccc(O)cc7CC[C@@H]6c6ccccc6)cc5)CC4)C3)cc1)=N[C@@H](C)c1nnc(C)n1-2` [III-137], the GI50 in assay [1] was 500 to 2500 nM; in assay [2] it was 50 to 500 nM; in assay [3] it was 500 to 2500 nM.
In the case of `Cc1sc2c(c1C)C(c1ccc(N3CC(CC4CCN(c5ccc([C@@H]6c7ccc(O)cc7CC[C@@H]6c6ccccc6)cc5)CC4)C3)cc1)=N[C@@H](C)c1nnc(C)n1-2` [III-138], the GI50 is more than 2500 nM in assay [1], 500 to 2500 nM in assay [2] and 500 to 2500 nM in assay [3].
In the case of `Cc1sc2c(c1C)C(c1ccc(N3CC(C(=O)N4CCC(c5ccc([C@@H]6c7ccc(O)cc7CC[C@@H]6c6ccccc6)cc5)CC4)C3)cc1)=N[C@@H](C)c1nnc(C)n1-2` [III-139], the values for the GI50 in assay [1], in assay [2] and in assay [3] were 500 to 2500 nM, 50 to 500 nM and 500 to 2500 nM, respectively.
In the case of `Cc1sc2c(c1C)C(c1ccc(N3CCC(O)(CN4CCC(c5ccc([C@@H]6c7ccc(O)cc7CC[C@@H]6c6ccccc6)cc5)CC4)CC3)cc1)=N[C@@H](Cc1ncco1)c1nnc(C)n1-2` [III-140], the GI50 is 500 to 2500 nM in assay [1], less than 50 nM in assay [2] and 50 to 500 nM in assay [3].
